According to ChEMBL document CHEMBL5723588, “Data for DCP probe JNJ-3738” (2024):
Values belong to the compound of their own block, whether it stands above or below them. The source made the active and inactive calls. No cut-off for these calls is given here.

Legend:
[1] = target: Cyclin-dependent kinase 4 (Homo sapiens) (UniProt P11802); assay: Inhibition of CDK4 at 1.0 µM in the ActivX; conditions: Compound concentration 1.0 uM
[2] = target: Cyclin-dependent kinase 3 (Homo sapiens) (UniProt Q00526); assay: % inhibition of CDK3 in the DiscoverX Kinase panel at 1.0 µM; conditions: Compound concentration 1.0 uM
[3] = target: Cyclin-dependent kinase 6 (Homo sapiens) (UniProt Q00534); assay: Inhibition of CDK6 at 1.0 µM in the ActivX; conditions: Compound concentration 1.0 uM
[4] = target: Cyclin-dependent kinase 12 (Homo sapiens) (UniProt Q9NYV4); assay: Inhibition of CDK12 at 1.0 µM in the ActivX; conditions: Compound concentration 1.0 uM
[5] = target: Cyclin-dependent kinase 2 (Homo sapiens) (UniProt P24941); assay: % inhibition of CDK2 in the DiscoverX Kinase panel at 1.0 µM; conditions: Compound concentration 1.0 uM
[6] = target: Cyclin-dependent kinase 18 (Homo sapiens) (UniProt Q07002); assay: % inhibition of CDK18 in the DiscoverX Kinase panel at 1.0 µM; conditions: Compound concentration 1.0 uM
Chain of Cyclin-dependent kinase 18 (Homo sapiens) (Q07002 whole entry): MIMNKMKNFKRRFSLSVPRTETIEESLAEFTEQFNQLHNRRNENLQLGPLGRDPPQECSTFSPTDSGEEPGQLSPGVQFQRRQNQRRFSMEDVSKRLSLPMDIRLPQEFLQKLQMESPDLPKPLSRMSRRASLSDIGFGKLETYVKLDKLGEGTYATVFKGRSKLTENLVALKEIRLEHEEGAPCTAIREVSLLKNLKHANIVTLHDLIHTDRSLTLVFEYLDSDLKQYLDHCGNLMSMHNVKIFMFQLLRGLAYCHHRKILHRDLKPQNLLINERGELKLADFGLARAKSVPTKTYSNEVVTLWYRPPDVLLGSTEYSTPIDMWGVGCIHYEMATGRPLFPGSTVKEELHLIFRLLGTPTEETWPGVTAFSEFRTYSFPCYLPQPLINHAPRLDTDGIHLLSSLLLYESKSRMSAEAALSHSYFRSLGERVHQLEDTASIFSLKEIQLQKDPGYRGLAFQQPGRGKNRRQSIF

[7] = target: Cyclin-dependent kinase 18 (Homo sapiens) (UniProt Q07002); assay: Inhibition of CDK18 at 1.0 µM in the ActivX; conditions: Compound concentration 1.0 uM
[8] = target: Cyclin-dependent kinase 8 (Homo sapiens) (UniProt P49336); assay: Inhibition of CDK8 at 1.0 µM in the ActivX; conditions: Compound concentration 1.0 uM
Chain of Cyclin-dependent kinase 8 (Homo sapiens) (P49336 whole entry): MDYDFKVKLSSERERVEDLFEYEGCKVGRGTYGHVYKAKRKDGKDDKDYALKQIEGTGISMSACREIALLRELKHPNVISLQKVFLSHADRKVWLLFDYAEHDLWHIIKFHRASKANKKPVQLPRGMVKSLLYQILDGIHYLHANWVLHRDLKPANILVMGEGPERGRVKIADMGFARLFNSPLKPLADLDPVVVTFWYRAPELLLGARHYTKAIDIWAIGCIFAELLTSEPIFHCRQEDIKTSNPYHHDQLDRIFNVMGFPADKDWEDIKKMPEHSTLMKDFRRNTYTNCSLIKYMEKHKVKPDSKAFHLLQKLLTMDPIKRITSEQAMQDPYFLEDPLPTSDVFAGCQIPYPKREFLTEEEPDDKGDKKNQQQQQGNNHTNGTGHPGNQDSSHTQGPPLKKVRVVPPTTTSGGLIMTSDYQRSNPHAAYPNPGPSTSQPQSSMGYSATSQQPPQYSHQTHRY

[9] = target: Cyclin-dependent kinase 14 (Homo sapiens) (UniProt O94921); assay: Inhibition of CDK14 at 1.0 µM in the ActivX; conditions: Compound concentration 1.0 uM
Chain of Cyclin-dependent kinase 14 (Homo sapiens) (O94921 whole entry): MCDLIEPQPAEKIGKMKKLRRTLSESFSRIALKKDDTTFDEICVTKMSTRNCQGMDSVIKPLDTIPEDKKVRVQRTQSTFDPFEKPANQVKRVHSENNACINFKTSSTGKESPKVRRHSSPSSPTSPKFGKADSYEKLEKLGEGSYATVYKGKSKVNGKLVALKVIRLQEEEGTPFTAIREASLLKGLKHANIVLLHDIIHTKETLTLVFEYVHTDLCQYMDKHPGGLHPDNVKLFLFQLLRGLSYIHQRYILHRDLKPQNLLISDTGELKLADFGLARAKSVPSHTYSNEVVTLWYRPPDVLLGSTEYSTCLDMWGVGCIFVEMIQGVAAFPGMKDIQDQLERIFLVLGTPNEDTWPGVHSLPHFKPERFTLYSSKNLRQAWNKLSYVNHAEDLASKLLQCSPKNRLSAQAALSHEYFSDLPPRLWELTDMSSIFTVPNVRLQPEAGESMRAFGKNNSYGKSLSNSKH

[10] = target: Cyclin-dependent kinase 1 (Homo sapiens) (UniProt P06493); assay: Inhibition of CDK1 at 1.0 µM in the ActivX; conditions: Compound concentration 1.0 uM
Chain of Cyclin-dependent kinase 1 (Homo sapiens) (P06493 whole entry, looked up): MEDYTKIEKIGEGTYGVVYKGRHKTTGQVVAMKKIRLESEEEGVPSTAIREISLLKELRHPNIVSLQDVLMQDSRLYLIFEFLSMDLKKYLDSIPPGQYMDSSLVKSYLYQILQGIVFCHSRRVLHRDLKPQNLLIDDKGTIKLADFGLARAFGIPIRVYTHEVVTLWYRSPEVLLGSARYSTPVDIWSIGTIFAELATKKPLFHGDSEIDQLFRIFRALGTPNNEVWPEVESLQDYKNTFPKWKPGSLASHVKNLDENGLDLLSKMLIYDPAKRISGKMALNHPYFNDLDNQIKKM

[11] = target: Cyclin-dependent kinase 10 (Homo sapiens) (UniProt Q15131); assay: Inhibition of CDK10 at 1.0 µM in the ActivX; conditions: Compound concentration 1.0 uM
[12] = target: Cyclin-dependent kinase 4 (Homo sapiens) (UniProt P11802); assay: % inhibition of CDK4 in the DiscoverX Kinase panel at 1.0 µM; conditions: Compound concentration 1.0 uM
[13] = target: Cyclin-dependent kinase 8 (Homo sapiens) (UniProt P49336); assay: % inhibition of CDK8 in the DiscoverX Kinase panel at 1.0 µM; conditions: Compound concentration 1.0 uM
[14] = target: T1, Cyclin-dependent kinase 7 (Homo sapiens, UniProt P50613); assay: (§1) In vitro pharmacodynamics: p-RNA pol II Ser-5 (wtCDK7) ( QuantiGene Plex Gene Expression Assay: downregulation at the messenger level of superenhancer driven genes. The level of phosphorylation of Serine 5 on RNA pol II Vs totalRNA pol II is determined. The level of p-RNA pol II Ser-5 detected and stained with primary (a specific rabbit Phospho-Rpb1 CTD (Ser5) antibody) and secondary antibodies (a goat anti rabbit Alexa Fluor 488 conjugated secondary antibody) after 3 hrs incubation with probe.); format: functional
T1 sequence (P50613 whole entry): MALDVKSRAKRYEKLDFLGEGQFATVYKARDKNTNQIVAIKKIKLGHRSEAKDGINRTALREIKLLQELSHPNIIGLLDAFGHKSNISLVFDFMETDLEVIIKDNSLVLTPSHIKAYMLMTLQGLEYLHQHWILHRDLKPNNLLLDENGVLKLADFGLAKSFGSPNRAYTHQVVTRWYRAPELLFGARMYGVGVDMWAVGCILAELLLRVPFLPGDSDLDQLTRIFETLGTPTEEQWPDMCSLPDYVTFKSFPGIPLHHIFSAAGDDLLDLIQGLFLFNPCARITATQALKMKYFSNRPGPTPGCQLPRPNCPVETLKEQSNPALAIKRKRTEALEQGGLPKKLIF

[15] = target: Cyclin-dependent kinase 5 (Homo sapiens) (UniProt Q00535); assay: % inhibition of CDK5 in the DiscoverX Kinase panel at 1.0 µM; conditions: Compound concentration 1.0 uM
Chain of Cyclin-dependent kinase 5 (Homo sapiens) (Q00535 whole entry, looked up): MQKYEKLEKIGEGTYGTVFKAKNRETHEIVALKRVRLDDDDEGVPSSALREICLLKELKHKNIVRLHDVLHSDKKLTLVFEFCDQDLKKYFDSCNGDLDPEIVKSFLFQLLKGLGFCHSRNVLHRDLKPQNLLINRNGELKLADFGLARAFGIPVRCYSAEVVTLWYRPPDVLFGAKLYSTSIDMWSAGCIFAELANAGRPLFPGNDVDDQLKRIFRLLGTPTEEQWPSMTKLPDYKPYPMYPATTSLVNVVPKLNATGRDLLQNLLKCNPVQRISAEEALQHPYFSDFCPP

[16] = target: Cyclin-dependent kinase 5 (Homo sapiens) (UniProt Q00535); assay: Inhibition of CDK5 at 1.0 µM in the ActivX; conditions: Compound concentration 1.0 uM
[17] = target: T2, Cyclin-dependent kinase 11A/B (Homo sapiens) (UniProt Q9UQ88+P21127); assay: % inhibition of CDK11 in the DiscoverX Kinase panel at 1.0 µM; format: protein assay; conditions: Compound concentration 1.0 uM
[18] = target: T1, Cyclin-dependent kinase 7; assay: Inhibition of CDK7 at 1.0 µM in the ActivX; conditions: Compound concentration 1.0 uM
[19] = target: Serine/threonine-protein kinase 16 (Homo sapiens) (UniProt O75716); assay: Inhibition of MPSK1 at 1.0 µM in the ActivX; conditions: Compound concentration 1.0 uM
[20] = target: Cyclin-dependent kinase 17 (Homo sapiens) (UniProt Q00537); assay: Inhibition of CDK17 at 1.0 µM in the ActivX; conditions: Compound concentration 1.0 uM
Chain of Cyclin-dependent kinase 17 (Homo sapiens) (Q00537 whole entry, looked up): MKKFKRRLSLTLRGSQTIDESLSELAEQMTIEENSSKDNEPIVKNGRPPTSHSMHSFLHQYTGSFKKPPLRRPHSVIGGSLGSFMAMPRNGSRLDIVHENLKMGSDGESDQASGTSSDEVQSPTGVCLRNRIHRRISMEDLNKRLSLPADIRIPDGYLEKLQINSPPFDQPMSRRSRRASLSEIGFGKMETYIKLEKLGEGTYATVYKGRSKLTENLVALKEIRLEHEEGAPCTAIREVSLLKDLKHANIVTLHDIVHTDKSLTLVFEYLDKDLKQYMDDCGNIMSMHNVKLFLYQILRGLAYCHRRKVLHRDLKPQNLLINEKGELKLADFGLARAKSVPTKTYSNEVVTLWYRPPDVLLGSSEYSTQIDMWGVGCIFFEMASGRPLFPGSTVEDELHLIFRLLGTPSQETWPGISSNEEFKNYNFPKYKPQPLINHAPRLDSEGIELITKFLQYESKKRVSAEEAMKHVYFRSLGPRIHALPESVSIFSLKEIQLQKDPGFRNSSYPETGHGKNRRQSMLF

[21] = target: Cyclin-dependent kinase 11B (Homo sapiens) (UniProt P21127); assay: % inhibition of CDK11b in the DiscoverX Kinase panel at 1.0 µM; conditions: Compound concentration 1.0 uM
[22] = target: Cyclin-dependent kinase 16 (Homo sapiens) (UniProt Q00536); assay: % inhibition of CDK16 in the DiscoverX Kinase panel at 1.0 µM; conditions: Compound concentration 1.0 uM
Chain of Cyclin-dependent kinase 16 (Homo sapiens) (Q00536 whole entry): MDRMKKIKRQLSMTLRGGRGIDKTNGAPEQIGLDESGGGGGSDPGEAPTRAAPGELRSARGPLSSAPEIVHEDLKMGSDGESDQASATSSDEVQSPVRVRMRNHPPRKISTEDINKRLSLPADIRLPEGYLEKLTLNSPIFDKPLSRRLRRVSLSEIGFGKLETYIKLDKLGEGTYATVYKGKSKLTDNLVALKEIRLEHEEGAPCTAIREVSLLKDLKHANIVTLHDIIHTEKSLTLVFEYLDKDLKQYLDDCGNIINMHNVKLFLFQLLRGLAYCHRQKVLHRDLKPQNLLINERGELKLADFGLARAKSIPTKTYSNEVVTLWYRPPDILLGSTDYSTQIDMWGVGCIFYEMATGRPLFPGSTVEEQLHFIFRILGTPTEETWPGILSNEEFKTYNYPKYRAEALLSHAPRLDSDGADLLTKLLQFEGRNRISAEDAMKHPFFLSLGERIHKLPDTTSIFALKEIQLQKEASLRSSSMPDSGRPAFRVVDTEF

[23] = target: Calcium/calmodulin-dependent protein kinase kinase 2 (Homo sapiens) (UniProt Q96RR4); assay: Inhibition of CAMKK2 at 1.0 µM in the ActivX; conditions: Compound concentration 1.0 uM
[24] = target: T1, Cyclin-dependent kinase 7; assay: % inhibition of CDK7 in the DiscoverX Kinase panel at 1.0 µM
[25] = target: Cyclin-dependent kinase 15 (Homo sapiens) (UniProt Q96Q40); assay: % inhibition of CDK15 in the DiscoverX Kinase panel at 1.0 µM; conditions: Compound concentration 1.0 uM
Chain of Cyclin-dependent kinase 15 (Homo sapiens) (Q96Q40 whole entry): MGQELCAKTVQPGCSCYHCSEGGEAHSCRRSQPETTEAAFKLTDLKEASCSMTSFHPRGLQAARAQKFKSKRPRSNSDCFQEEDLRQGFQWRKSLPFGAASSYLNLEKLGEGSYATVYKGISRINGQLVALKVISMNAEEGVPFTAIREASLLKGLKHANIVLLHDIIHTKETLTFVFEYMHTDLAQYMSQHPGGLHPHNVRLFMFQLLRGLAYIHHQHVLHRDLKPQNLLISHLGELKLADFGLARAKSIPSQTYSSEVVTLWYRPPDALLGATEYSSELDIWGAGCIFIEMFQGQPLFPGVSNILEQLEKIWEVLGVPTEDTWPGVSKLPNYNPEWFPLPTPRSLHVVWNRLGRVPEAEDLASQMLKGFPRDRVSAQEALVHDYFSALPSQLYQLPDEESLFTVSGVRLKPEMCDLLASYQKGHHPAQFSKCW

[26] = target: T2, Cyclin-dependent kinase 11A/B (Homo sapiens); assay: Inhibition of CDK11 at 1.0 µM in the ActivX; format: protein assay; conditions: Compound concentration 1.0 uM
[27] = target: Cyclin-dependent kinase 13 (Homo sapiens) (UniProt Q14004); assay: % inhibition of CDK13 in the DiscoverX Kinase panel at 1.0 µM; conditions: Compound concentration 1.0 uM
[28] = target: Cyclin-dependent kinase 17 (Homo sapiens) (UniProt Q00537); assay: % inhibition of CDK17 in the DiscoverX Kinase panel at 1.0 µM; conditions: Compound concentration 1.0 uM
[29] = target: T3, Cyclin-dependent kinase 9 (Homo sapiens, UniProt P50750); assay: % inhibition of CDK9 in the DiscoverX Kinase panel at 1.0 µM
T3 sequence (P50750 whole entry): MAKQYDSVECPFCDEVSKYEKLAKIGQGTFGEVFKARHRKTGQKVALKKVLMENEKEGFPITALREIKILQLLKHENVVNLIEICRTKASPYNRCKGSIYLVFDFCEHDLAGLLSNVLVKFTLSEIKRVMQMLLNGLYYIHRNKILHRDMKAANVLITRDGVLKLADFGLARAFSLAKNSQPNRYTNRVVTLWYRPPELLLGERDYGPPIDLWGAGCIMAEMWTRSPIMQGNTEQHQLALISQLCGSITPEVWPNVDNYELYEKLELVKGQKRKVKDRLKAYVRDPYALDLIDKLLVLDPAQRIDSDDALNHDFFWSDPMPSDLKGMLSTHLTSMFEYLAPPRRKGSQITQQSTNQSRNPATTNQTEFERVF

[30] = target: Cyclin-dependent kinase 11B (Homo sapiens) (UniProt P21127); assay: Inhibition of CDK11b at 1.0 µM in the ActivX; conditions: Compound concentration 1.0 uM
[31] = target: T4, CDK7/Cyclin H/MNAT1 (Homo sapiens) (UniProt P51946+P50613+P51948); assay: (§2) Biochemical CDK7 assay (kinact/KIapp) ( CDK7 catalyzed, ATP-dependent, phosphorylation of a peptide substrate derived from RNA Pol II (CDK7/9-tide). Coupled via lactate dehydrogenase (LDH) and pyruvate kinase (PK) to lactate and NAD+ production, with concomitant depletion of NADH. Continuous coupled assay measures CDK7 catalytic activity through the diminished absorbance intensity at 340 nm that corresponds with NADH depletion.); format: functional
[32] = target: Cyclin-dependent kinase 14 (Homo sapiens) (UniProt O94921); assay: % inhibition of CDK14 in the DiscoverX Kinase panel at 1.0 µM; conditions: Compound concentration 1.0 uM
[33] = target: Cyclin-dependent kinase 15 (Homo sapiens) (UniProt Q96Q40); assay: Inhibition of CDK15 at 1.0 µM in the ActivX; conditions: Compound concentration 1.0 uM
[34] = target: Cyclin-dependent kinase 13 (Homo sapiens) (UniProt Q14004); assay: Inhibition of CDK13 at 1.0 µM in the ActivX; conditions: Compound concentration 1.0 uM
[35] = target: T3, Cyclin-dependent kinase 9; assay: Inhibition of CDK9 at 1.0 µM in the ActivX; conditions: Compound concentration 1.0 uM
[36] = target: Cyclin-dependent kinase 7 (Homo sapiens, UniProt P50613, C312S); assay: as §1, with “(CDK7 C312S)” for “(wtCDK7)”; format: functional
Chain of Cyclin-dependent kinase 7 (Homo sapiens, UniProt P50613, C312S) (P50613 2-346 C312S limits assumed): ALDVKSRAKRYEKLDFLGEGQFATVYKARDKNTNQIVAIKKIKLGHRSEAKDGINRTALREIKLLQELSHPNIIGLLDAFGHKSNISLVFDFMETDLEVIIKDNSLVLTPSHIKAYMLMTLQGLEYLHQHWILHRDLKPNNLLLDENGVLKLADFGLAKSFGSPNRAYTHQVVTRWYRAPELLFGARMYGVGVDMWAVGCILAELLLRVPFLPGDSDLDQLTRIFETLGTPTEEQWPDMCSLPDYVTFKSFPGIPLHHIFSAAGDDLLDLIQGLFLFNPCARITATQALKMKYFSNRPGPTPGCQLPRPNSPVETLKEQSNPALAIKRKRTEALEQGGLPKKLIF

[37] = target: Cyclin-dependent kinase 2 (Homo sapiens) (UniProt P24941); assay: Inhibition of CDK2 at 1.0 µM in the ActivX; conditions: Compound concentration 1.0 uM
[38] = target: T4, CDK7/Cyclin H/MNAT1 (Homo sapiens); assay: as §2, with “(KIapp)” for “(kinact/KIapp)”; format: functional
[39] = target: Cyclin-dependent kinase 20 (Homo sapiens) (UniProt Q8IZL9); assay: Inhibition of CDK20 at 1.0 µM in the ActivX; conditions: Compound concentration 1.0 uM
[40] = target: Cyclin-dependent kinase 16 (Homo sapiens) (UniProt Q00536); assay: Inhibition of CDK16 at 1.0 µM in the ActivX; conditions: Compound concentration 1.0 uM
[41] = target: T1, Cyclin-dependent kinase 7; assay: Fluorescent end-point assay ( KM ATP app ~30 µM); format: functional

Chain of Cyclin-dependent kinase 4 (Homo sapiens) (P11802 whole entry): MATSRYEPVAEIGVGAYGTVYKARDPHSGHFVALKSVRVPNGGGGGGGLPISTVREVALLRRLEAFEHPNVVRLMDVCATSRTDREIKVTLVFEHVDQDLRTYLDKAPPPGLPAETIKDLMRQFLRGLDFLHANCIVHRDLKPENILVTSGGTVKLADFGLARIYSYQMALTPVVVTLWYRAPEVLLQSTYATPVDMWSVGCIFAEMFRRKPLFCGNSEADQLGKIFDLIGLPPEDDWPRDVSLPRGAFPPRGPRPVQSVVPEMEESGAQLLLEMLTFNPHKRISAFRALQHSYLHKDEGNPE

inhibition [1]: 0% | inhibition [2]: 14% | inhibition [3]: 0% | inhibition [4]: 11% | inhibition [5]: 10% | inhibition [6]: 25% | inhibition [7]: 19% | inhibition [8]: 7% | inhibition [9]: 11% | inhibition [10]: 11% | inhibition [11]: 3% | inhibition [12]: 10% | inhibition [13]: > 2% | IC50 [14]: 58 nM (active) | inhibition [15]: 5% | inhibition [16]: 2% | inhibition [17]: 11% | inhibition [18]: 95% | inhibition [19]: 65% | inhibition [20]: 17% | inhibition [21]: 0% | inhibition [22]: 5% | inhibition [23]: 70% | IC50 [24]: 3.8 nM | inhibition ([24]; Compound concentration 1.0 uM): 99% | inhibition [25]: 21% | inhibition [26]: 7% | inhibition [27]: 12% | inhibition [28]: 2% | IC50 [29]: 933 nM | inhibition ([29]; Compound concentration 1.0 uM): 36% | inhibition [30]: 5% | kinact/KIapp [31]: 2600 M⁻¹ s⁻¹ | inhibition [32]: 5% | inhibition [33]: 15% | inhibition [34]: 13% | inhibition [35]: 45% | IC50 [36]: > 10000 nM (not active) | inhibition [37]: 6% | KIapp [38]: 31 nM | inhibition [39]: 5% | inhibition [40]: 1%
SMILES: CC#CC(=O)N1CC(N2CCC(c3cc(C)c4c(c3)Nc3ncnc(N5CCS(=O)(=O)CC5)c3[C@@H](C)O4)CC2)C1

IC50 [41]: ~200 nM (not active) | IC50 [14]: > 10000 nM (not active) | IC50 [36]: > 10000 nM (not active)
SMILES: CC(=O)N1CC(N2CCC(c3cc(C)c4c(c3)Nc3ncnc(N5CCS(=O)(=O)CC5)c3[C@@H](C)O4)CC2)C1
